Source: patent publication US20050288299A1, “Azaindole derivatives as inhibitors of p38 kinase” (priority 2002, published 2005)

Target: p38α kinase (Homo sapiens, UniProt Q16539)
Experiment: p38α Flash Plate Assay (p38 kinase inhibition)
Assay type: biochemical
Conditions: in vitro; 150 μM ATP, 0.05 mM biotinylated peptide substrate, 5 nM enzyme, 60 minute incubation at 30° Celsius; read-out: P38 α-FLASHPLATE IC50
Method: Assay for p38 Kinase Inhibition—p38α Flash Plate Assay
The compounds to be tested were solubilized in DMSO and diluted with water to the desired concentrations. The p38 kinase was diluted to 20 nM into a buffer containing 20 mM MOPS, pH 7.0, 25 mM beta-glycerol phosphate, 2 mg/ml gelatin, 0.5 mM EGTA (ethylene-bis-(oxyethylenenitrilo)-tetraacetic acid), and 4 mM dithiothreitol (DTT).
The reaction was carried out by mixing 20 μl test compound with 10 μl of a substrate cocktail containing 0.2 mM biotinylated peptide substrate and 0.6 mM ATP (+100 μCi/ml gamma-^33P-ATP) in a 5× assay buffer. The reaction was initiated by the addition of 10 μl of p38 kinase. Final assay conditions were 25 mM MOPS, pH 7.0, 26.25 mM beta-glycerol phosphate, 80 mM KCl, 22 mM MgCl2, 3 mM MgSO4, 1 mg/ml gelatin, 0.625 mM EGTA, 1 mM DTT, 0.05 mM peptide substrate, 150 μM ATP, and 5 nM enzyme. After a 60 minute incubation at 30° Celsius, the reaction was stopped by the addition of 10 μl per reaction of 0.25 M phosphoric acid.
A portion of the reaction was transferred to a streptavidin-coated Flash Plate (Perkin Elmer); the Flash Plate was incubated for 60 minutes at 30° Celsius and then washed 3× with PBS containing 0.01% Tween-20.
Counts incorporated are determined on a scintillation counter. Relative enzyme activity was calculated by subtracting background counts (counts measured in the absence of enzyme) from each result, and comparing the resulting counts to those obtained in the absence of inhibitor. IC50 values were determined with curve-fitting plots available with common software packages. The IC50 was expressed as the concentration of compound which inhibited the enzyme activity by 50%.

p38α kinase, sequence (Q16539 whole entry): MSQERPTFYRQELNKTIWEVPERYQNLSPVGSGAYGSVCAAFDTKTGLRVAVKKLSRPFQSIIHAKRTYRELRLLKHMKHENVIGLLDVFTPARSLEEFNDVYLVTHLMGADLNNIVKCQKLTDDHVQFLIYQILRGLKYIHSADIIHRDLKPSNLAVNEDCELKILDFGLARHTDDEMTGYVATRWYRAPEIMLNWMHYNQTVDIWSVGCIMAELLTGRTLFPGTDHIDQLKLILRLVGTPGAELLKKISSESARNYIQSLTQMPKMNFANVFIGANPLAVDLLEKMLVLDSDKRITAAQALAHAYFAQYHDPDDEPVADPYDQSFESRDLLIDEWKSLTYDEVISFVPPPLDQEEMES

**Q.** For CCOc1nc2[nH]cc(C(=O)C(=O)NC)c2cc1C(=O)N1C[C@H](C)N(Cc2ccc(F)cc2)C[C@H]1C [compound 34], which IC50 is on record?
**A.** 30 nM
